# Reference: patent US20220313658A1, “YAP Inhibition for Wound Healing” (The Board of Trustees of the Leland Stanford Junior …, priority 2019, published 2022)
# Tests used:
# [1] = test system: reticular dermal (Dlk1^+) ENFs; experiment: Fractionated ENF subpopulations cultured on TCPS with or without ROCK inhibitor; type: cell-based, mouse; settings: 14 days, ROCK inhibitor added
# Source text: (§1) Mice were euthanized by CO2 narcosis and cervical dislocation, the dorsal fur was clipped, a depilatory cream was applied topically to the dorsum for 30 seconds. Next, the dorsal skin was harvested using dissecting scissors by separation along fascial planes, the subcutaneous fat was trimmed with a scalpel, and the skin was rinsed in betadine, followed by 5 rinses in cold PBS. To achieve a cell suspension, the harvested skin was finely minced using sharp scissors, enzymatically digested (Liberase DL, 0.5 mg/mL, 1 hour), and filtered through a 40 μm nylon mesh. ENFs and EPFs were isolated from En-1^Cre;R26^mTmG mice (En-1 lineage-negative cells, mTomato^+; En-1 lineage-positive cells, GFP^+) via a previously reported FACS strategy. Briefly, a lineage gate (Lin) for hematopoietic (CD45, Ter-119), endothelial (CD31, Tie2), and epithelial (CD326, CD324) cell markers was used as a negative gate to isolate fibroblasts (Lin^−), which were sorted into ENFs (Tornato^+GFP^−Lin^−) and EPFs (Tomato^−GFP+ Lin^−). To isolate ENF subpopulations, dorsal skin cells were harvested from P1 En-1^Cre,Ai6 mice (En-1 lineage-negative cells, no fluorescence; En-1 lineage-positive cells, GFP^+) via mechanical and enzymatic digestion as described above. […]
# ENFs = ENFs cultured on stiff tissue culture plastic (TCPS) with ROCK inhibitor: En-1 activation; type: cell-based, mouse; settings: bulk ENFs on stiff TCPS with ROCK inhibitor, 14 days in culture
# Source text: as §1
smiles,measurement,setting,value
C[C@@H](N)[C@H]1CC[C@H](C(=O)Nc2ccncc2)CC1 [Y-27632],En-1 activation in Dlk1+ ENFs,[1],blocked
same,En-1 activation (conversion of ENFs to GFP+ EPFs),ENFs,lack of En-1 activation
